Measured values published in patent publication US4921846A, “Novel 17-hetero substituted steroids” (Roussel Uclaf, priority 1987, dated 1990).

What was measured:
[1] = tested on: Thymocytes of suprarenalectomized rats; assay: Antiglucocorticoid activity: tritiated uridin incorporation in thymocytes with dexamethasone; format: cell-based; settings: Rattus norvegicus, Thymocyte, 5.10^-8 M dexamethasone, 37° C., read-out: % inhibition of the effect of dexamethasone; for inhibition at 1 µM: product at 10^-6 M; for inhibition at 0.1 µM: product at 10^-7 M; for inhibition at 0.01 µM: product at 10^-8 M
Protocol: The technique used was derived from the method described by Dausse et al in Molecular Pharmacology, Vol. 13, p.
Thymocytes of suprarenalectomized rats were incubated at 37° C. for 3 hours in a nutritive medium containing 5.10^-8 M of dexamethasone in the presence or absence of a product test at various concentrations. Tritiated uridin was added and incubation was continued for one hour. The incubates were cooled, treated with a 5% solution of trichloroacetic acid, filtered on Whatman GF/A paper and washed three time with a 5% solution of trichloroacetic acid. The radioactivity retained by the filter was determined. Glucocorticoids and, in particular dexamethasone, cause a decrease in the incorporation of tritiated uridin.

[2] = target: T1, Glucocorticoid receptor of the thymus of a rat (Rattus norvegicus, UniProt P06536); assay: Glucocorticoid receptor of the thymus of a rat, relative bond affinity; format: binding; settings: for relative bond affinity (RBA), Glucocorticoid: RBA=100(CH)/(CX), reference dexamethasone
T1 construct: The thymuses were removed and homogenized at 0° C; from tissue; host or cells: thymus of adrenalectomized male Sprague-Dawley rats, 105,000 g supernatant (cytosol)
T1 sequence (P06536 1-795): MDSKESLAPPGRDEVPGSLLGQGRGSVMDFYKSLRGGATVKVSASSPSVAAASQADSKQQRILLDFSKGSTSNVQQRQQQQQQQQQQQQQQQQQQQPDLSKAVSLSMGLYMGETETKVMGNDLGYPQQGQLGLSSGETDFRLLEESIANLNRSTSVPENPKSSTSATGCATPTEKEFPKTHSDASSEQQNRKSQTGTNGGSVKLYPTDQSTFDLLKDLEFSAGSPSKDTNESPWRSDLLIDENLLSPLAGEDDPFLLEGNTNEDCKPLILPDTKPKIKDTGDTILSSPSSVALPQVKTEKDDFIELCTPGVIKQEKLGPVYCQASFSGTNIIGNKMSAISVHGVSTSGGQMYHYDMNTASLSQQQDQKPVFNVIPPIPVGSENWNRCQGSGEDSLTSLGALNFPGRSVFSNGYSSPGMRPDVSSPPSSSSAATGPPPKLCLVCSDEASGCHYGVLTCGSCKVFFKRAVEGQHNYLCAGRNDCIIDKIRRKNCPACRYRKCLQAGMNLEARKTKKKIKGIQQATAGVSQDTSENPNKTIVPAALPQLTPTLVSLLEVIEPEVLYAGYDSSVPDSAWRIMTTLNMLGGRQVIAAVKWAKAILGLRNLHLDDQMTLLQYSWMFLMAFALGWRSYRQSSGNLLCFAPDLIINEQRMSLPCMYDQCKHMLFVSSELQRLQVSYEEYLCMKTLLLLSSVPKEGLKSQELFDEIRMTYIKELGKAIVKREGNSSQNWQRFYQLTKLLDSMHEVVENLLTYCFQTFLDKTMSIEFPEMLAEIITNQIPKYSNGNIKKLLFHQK
Protocol: Sprague-Dawley EPOS male rats weighting 160 to 200 g were suprarenalectomized and, 4 to 8 days after this removal, the animals were killed. The thymuses were removed and homogenized at 0° C. in a buffer Tris 10 mM, saccharose 0.25M, dithiothreitol 2 mM, HCl, pH 7.4, with Potter polytetrafluoroethylene-dish (1 g of tissue per 10 ml of TS). The homogenate was then ultra-centrifuged (105,000 g×90 minutes) at 0° C. Aliquots of the supernatant thus obtained were incubated at 0° C. for a time t, with a constant concentration (T) of tritiated dexamethasone in the presence of increasing concentrations (0-2500×10^-9 M) either of cold dexamethasone, or of cold product under test. The concentration of bonded tritiated […] (B) was then measured in each incubate by the technique of adsorption on dextran carbon.
(§1) The calculation of the relative bond affinity (RBA) was the same for all the receptors. The following 2 curves were drawn: the percentage of bonded tritiated hormone B/T as a function of the logarithm of the concentration of the cold reference hormone and B/T as a function of the logarithm of the concentration of the cold product under test. The straight line of the equation I50 =(B max/T+B min/T)/2 was determined. B/T max = percentage of bonded tritiated hormone for an incubation of this hormone tritiated at a concentration (T). B/T min = percentage of bonded tritiated hormone for an incubation of this tritiated hormone at a concentration (T) in the presence of a large excess of cold hormone (2500×10^-9 M). The intersections of the straight line I50 and the curves enables the concentrations of cold reference hormone (CH) and of cold product under test (CX) which inhibit by 50% the bond of the tritiated hormone on the receptor to be evaluated. The relative bond affinity (RBA) of the product tested was determined by the equation: […]

female rat = assay: Abortive activity in a female rat; format: in vivo; settings: 3 mg/kg on day D9 of gestation, suspension in carboxymethyl cellulose containing 0.5% Tween; examined 72 hours after treatment
Protocol: Day D1 of gestation was determined by the presence of spermatozoids in the vaginal smear and, on day D9 of the gestation, the product was administered in suspension in carboxymethyl cellulose containing 0.5% Tween. The animals were killed 72 hours after the treatment and the uterus was examined to determine the state of gestation.

[3] = target: T2, Progestogene receptor of the uterus of a rabbit (Oryctolagus cuniculus, UniProt P06186); assay: Progestogene receptor of the uterus of a rabbit, relative bond affinity; format: binding; settings: for relative bond affinity (RBA), Progestogene: RBA=100(CH)/(CX)
T2 construct: The uteri were removed, weighted and homogenized at 0° C; from tissue; host or cells: uterus of estradiol-treated impuberal female rabbits, 105,000 g supernatant (cytosol)
T2 sequence (P06186 1-930): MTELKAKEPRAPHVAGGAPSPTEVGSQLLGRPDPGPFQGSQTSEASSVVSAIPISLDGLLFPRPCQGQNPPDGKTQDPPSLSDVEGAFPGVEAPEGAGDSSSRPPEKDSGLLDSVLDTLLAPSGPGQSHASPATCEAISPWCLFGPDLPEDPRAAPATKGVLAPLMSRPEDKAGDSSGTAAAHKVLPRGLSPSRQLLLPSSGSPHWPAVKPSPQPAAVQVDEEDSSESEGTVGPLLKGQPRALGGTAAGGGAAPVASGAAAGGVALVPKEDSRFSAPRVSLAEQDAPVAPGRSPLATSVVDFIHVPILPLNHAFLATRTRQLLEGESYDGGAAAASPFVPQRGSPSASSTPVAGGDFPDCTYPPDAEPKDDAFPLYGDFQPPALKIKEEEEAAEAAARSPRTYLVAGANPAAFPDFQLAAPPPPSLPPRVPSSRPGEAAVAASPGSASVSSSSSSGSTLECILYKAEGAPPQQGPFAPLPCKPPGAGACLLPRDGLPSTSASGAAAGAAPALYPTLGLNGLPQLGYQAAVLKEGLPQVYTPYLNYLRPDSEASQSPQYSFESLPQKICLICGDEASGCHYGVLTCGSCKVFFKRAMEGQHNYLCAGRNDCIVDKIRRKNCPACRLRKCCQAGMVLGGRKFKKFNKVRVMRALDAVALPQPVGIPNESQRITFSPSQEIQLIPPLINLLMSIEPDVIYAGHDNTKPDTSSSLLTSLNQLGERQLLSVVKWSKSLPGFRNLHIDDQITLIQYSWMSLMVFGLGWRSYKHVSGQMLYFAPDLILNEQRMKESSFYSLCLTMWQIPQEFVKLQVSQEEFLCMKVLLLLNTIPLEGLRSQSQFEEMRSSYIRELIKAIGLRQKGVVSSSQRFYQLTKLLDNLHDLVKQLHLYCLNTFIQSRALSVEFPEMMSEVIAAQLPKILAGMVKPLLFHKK
Protocol: Impuberal female rabbits of about 1 kg received a cutaneous application of […] of estradiol and, 5 days after this treatment, the animals were killed. The uteri were removed, weighted and homogenized at 0° C. in a Potter teflon-dish in a buffered solution TS (Tris 10 mM, saccharose 0.25M, HCl pH 7.4) (1 g of tissue per 50 ml of TS). The homogenate was then ultra-centrifuged (105,000 g×90 minutes) at 0° C. and aliquots of the supernatant thus obtained were incubated at 0° C. for a time t, with a constant concentration (T) of tritiated product R (17,21-dimethyl-19-nor-Δ^4,9 -pregnadien-3,20-dione) in the presence of increasing concentrations (0-2500×10^-9 M) either of cold R, or of cold progesterone or of the cold product under test. The concentration of bonded tritiated R (B) […] by the technique of adsorption on dextran carbon.
as §1

Row | relative bond affinity (RBA), Glucocorticoid ([2]; Incubation Time at 0° C.: 2 H) | relative bond affinity (RBA), Glucocorticoid ([2]; Incubation Time at 0° C.: 4 H) | affinity for glucocorticoid receptors (in words) ([2]; conclusion) | relative bond affinity (RBA), Progestogene ([3]; Incubation Time at 0° C.: 2 H) | relative bond affinity (RBA), Progestogene ([3]; Incubation Time at 0° C.: 4 H) | affinity for progestogen receptors (in words) ([3]; conclusion) | SMILES | inhibition at 1 µM [1] [%] | inhibition at 0.1 µM [1] [%] | inhibition at 0.01 µM [1] [%] | abortion (state of gestation) (female rat)
1 | 126 | 43 | marked affinity | 93 | 415 | marked affinity | CN(C)c1ccc([C@H]2C[C@@]3(C)[C@@H](CC[C@@]34CCO4)[C@@H]3CCC4=CC(=O)CCC4=C32)cc1 [Example 1, (17R) 11β-[4-(dimethylamino)-phenyl]-spiro-(Δ^4,9-estradien-17,2'-oxetan)-3-one] | 122 | 55 | 16 | complete abortion in all the animals of the group
2 | 23 | 24 |  | 24 | 157 |  | CN(C)c1ccc([C@H]2C[C@@]3(C)[C@@H](CC[C@@]34CCCCO4)[C@@H]3CCC4=CC(=O)CCC4=C32)cc1 [Example 3, (17S) 11β-[4-(dimethylamino)-phenyl]-3',4',5',6'-tetrahydro spiro (Δ^4,8-estradien-17,2'-(2H)pyran)-3-one] | 93 | 22 | 7 | 

Row | SMILES | relative bond affinity (RBA), Glucocorticoid ([2]; Incubation Time at 0° C.: 2 H) | relative bond affinity (RBA), Glucocorticoid ([2]; Incubation Time at 0° C.: 4 H) | affinity for glucocorticoid receptors (in words) ([2]; conclusion) | relative bond affinity (RBA), Progestogene ([3]; Incubation Time at 0° C.: 2 H) | relative bond affinity (RBA), Progestogene ([3]; Incubation Time at 0° C.: 4 H) | affinity for progestogen receptors (in words) ([3]; conclusion) | inhibition at 1 µM [1] [%] | inhibition at 0.1 µM [1] [%] | inhibition at 0.01 µM [1] [%] | abortion (state of gestation) (female rat)
3 | CSc1ccc([C@H]2C[C@@]3(C)[C@@H](CC[C@@]34CCO4)[C@@H]3CCC4=CC(=O)CCC4=C32)cc1 [Example 2, (17R) 11β-[4-(methylthio)-phenyl]-spiro-(Δ^4,9-estradient-17,2'-oxetan)-3-one] | 56 | 22 |  | 23 | 67 |  | 76 | 27 | 10 | 
